{"source": "patent US20220133702A1", "about": "“CYSTIC FIBROSIS TRANSMEMBRANE CONDUCTANCE REGULATOR MODULATORS FOR TREATING AUTOSOMAL DOMINANT POLYCYSTIC KIDNEY DISEASE” (The Johns Hopkins University, priority 2020, published 2022)", "key": {"PN cells": {"system": "PN cells", "assay": "BrdU cell proliferation assay", "format": "cell-based, mouse", "details": "1 and 10 μM, vs DMSO-treated cells", "source_text": "FIG. 3A, FIG. 3B, FIG. 3C, and FIG. 3D show cell proliferation is reduced by VX-809. (FIG. 3A-FIG. 3B) Proliferation in kidneys of Pkd1^fl/fl; Pax8^rtTA; TetO-cre mice. Representative images of Ki67 (a cellular marker for proliferation) staining of PN21 kidney sections from DMSO- and VX-809-treated mice. Arrows indicate Ki67-positive cells. Pictures were acquired with a Zeiss microscope equipped with 20× objective. (FIG. 3C) Summary data for Ki67-positive cells. Columns represent averages±standard errors of DMSO (vehicle)-treated (n=3) and VX-809-treated (n=3) mice. Statistical analysis was performed using a two-tailed Student's t test. (FIG. 3D) Proliferation in PN cells. PN cells were treated with VX-809 or DMSO). The bromodeoxyuridine (BrdU) concentration in the cells was measured by using a BrdU cell proliferation assay kit (Millipore Sigma#2750) according to the manufacturer's protocol. Columns represent averages±SEs of the OD of BrdU at 450/550 […]. Data were analyzed using Student's t-test, with n=5-7. Methods were described previously (62). *P>0.05; **P<0.01;\nA hallmark of the cysts in ADPKD is an increase in proliferation in response to cAMP. Therefore, it was determined whether VX-809 would affect proliferation."}, "cAMP": {"system": "cAMP", "assay": "cAMP level in mouse kidney tissue", "format": "in vivo", "details": "PC1 conditional knockout mouse kidneys, VX-809-treated vs untreated", "description": "FIG. 4A, FIG. 4B, FIG. 4C, FIG. 4D, and FIG. 4E show (FIG. 4A-FIG. 4B) cAMP levels are reduced by VX-809. (FIG. 4A) cAMP levels in mouse tissue were reduced by VX-809. The kidney samples (n=6) analyzed were taken from those depicted in FIG. 1. (FIG. 4B) Confluent PN and PH cells were treated with VX-809 (10 μM) or DMSO for 16 hand then treated with forskolin (100 μM) for 30 min before the cells were harvested for the assay. Columns represent means±SEM. Statistical analysis was performed using a two-tailed Student's t-test. Each set of data is from three individual wells; Note that resting cAMP is greater in PN vs PH cells as previously shown (25). Also note that forskolin caused a large increase in cAMP. A smaller increase occurred with IBMX. […] The data were analyzed by non-parametric t-test. […]\nIt has been shown previously in both animal and cell culture models of ADPKD that cells lacking functional PC1 have elevated cAMP levels when compared to normal. To assess the effect of CFTR correctors, cAMP activity was measured in PC1 conditional knockout mouse kidneys and in PN cells that were either left untreated or treated with VX-809. […]\nCyclic AMP assay. […] Cyclic AMP levels were measured with a direct cAMP Enzyme Immunoassay Kit (Sigma, #CA200) according to the manufacturer's protocol. The results are expressed as pmole/ml. […]"}, "NHE3 in PN cells": {"system": "NHE3 in PN cells", "assay": "NHE3 activity", "format": "cell-based, mouse", "details": "treated PN cells vs PN cells", "description": "FIG. 15A and FIG. 15B show NHE3 activity in PN and PH cells (FIG. 15A and FIG. 15B) and NHE3 activity in PN cells treated with VX-809.\nFIG. 16A, FIG. 16B, and FIG. 16C show NHE activity in PN/PH cells or PN cells treated with VX-809;\nThe expression and activity of […] were evaluated. Specifically, NHE3 expression was evaluated in PN cells that were treated with VX-809. […] was also studied in PN, PH, and PN cells treated with VX-809. […] Next, NHE3 activity was evaluated in PN/PH cells or PN cells treated with VX-809. NHE3 activity was increased in PN cells treated with VX-809, as compared to PN cells (FIG. 16A). NHE3 activity was higher in control PH cells than in PN cells (FIG. 16B). […] NHE3 activity was increased in both VX-809 treated PN cells and control PH cells, as compared to control PN cells (FIG. 16C)."}, "CFTR in PN cells": {"system": "CFTR in PN cells", "assay": "CFTR expression and biotinylation", "format": "cell-based, mouse", "details": "10 μM, 16 h, vs control PN cells", "description": "FIG. 19A, FIG. 19B, FIG. 19C, and FIG. 19D show CFTR expression in PN cells treated with VX-809 (10 μM) for 16 h.\nThe expression of CFTR was evaluated in PN cells treated with VX-809 and control PN cells. PN cells were treated with 10 μM VX-809 for 16 h or a control."}, "PC2 in Pkd1^RC/RC mice": {"system": "PC2 in Pkd1^RC/RC mice", "assay": "Immunoblot of PC2 protein in kidney tissue, missense model", "format": "in vivo, mouse", "details": "treated daily from one month to 6 months", "description": "The levels of PC2 protein were analyzed in two mouse models of ADPKD: Pkd1^fl/fl; Pax8^rtTA; TetO-cre, which is PC1 null, and the Pkd1^R3277C/R3277C (pkd1^RC/RC) which has a missense mutation in PC1. Pkd1^RC/RC mice develop a consistent, slowly progressing polycystic kidney disease. Pkd1^RC/RC mice were treated daily with VX-809, beginning at one month, and euthanized at 6 months.\nWild-type mice were treated without doxycycline (Wt), and Pkd1^RC/RC mice were treated with doxycycline plus DMSO (RC) or with doxycycline plus VX809 (RC+VX809), as indicated. Three mice were analyzed for each treatment.\nIn Pkd1^RC/RC mice, doxycycline-induced cyst formation decreases PC2 protein."}}}
{"molecule": "Cc1ccc(NC(=O)C2(c3ccc4c(c3)OC(F)(F)O4)CC2)nc1-c1cccc(C(=O)O)c1", "note": "[VX-809, lumacaftor]", "values": [{"measurement": "cell proliferation (BrdU)", "setting": "PN cells", "result": "significantly inhibit cell proliferation"}, {"measurement": "cAMP levels in kidneys", "setting": "cAMP", "result": "significantly decreased"}, {"measurement": "NHE3 activity", "setting": "NHE3 in PN cells", "result": "significantly increased"}, {"measurement": "CFTR expression", "setting": "CFTR in PN cells", "result": "enhanced"}, {"measurement": "biotinylation of CFTR", "setting": "CFTR in PN cells", "result": "significantly increased"}, {"measurement": "PC2 protein expression (normalized to vinculin)", "setting": "PC2 in Pkd1^RC/RC mice", "result": "higher levels of PC2 expression"}]}
